Test results: paper PMC7894522, “Structure Based Design of Bicyclic Peptide Inhibitors of RbAp48” (Angewandte Chemie (International Ed. in English), 2020)
Blank lines part the entries; values can stand above or below the compound they belong to. Starred links: 1 amine or outer side, 2 acyl side, 3 side chain; linkers in the order of their positions; H or OH if unused. Positions of bridges follow the written chain, without caps; N, C: chain ends. Residues, ends and D or L forms follow the SMILES beside them. TBMB = c1c(C[*:1])cc(C[*:3])cc1C[*:2]; pXylylene = c1cc(C[*:2])ccc1C[*:1]

Columns and labels:
[1] = system: U2OS cells; test: Morphological cell painting assay; format: cell-based; settings: Supplemental table 6; cell painting profile similarity to compound 49, U2OS cells
From the text: Encouraged by the promising results from the pulldown experiment, and in order to get insight into bioactivity and possible mode of action, we analyzed peptide 33 in a morphological cell painting assay. The cell painting assay is a target agnostic assay which determines a cells morphological profile after treatment with a compound of interest and compares it to the profiles of a set of reference compounds. ^[22] By identifying reference compounds with a similar profile a hypothesis of the compounds mode of action can be generated based on their annotated targets. ^[23] U2OS cells were treated with our compound and 579 parameters were analyzed. […] We therefore synthesized a variant modified with an N‐terminal TAT sequence to enhance its permeability (compound 49, see Table 1 and Supplemental Figure 4). ^[24] […] Applying compound 49 to the cell painting assay led to an induction of 5.9 % and the corresponding profile was compared to the set of 3000 reference compounds. […] To validate this hypothesis, we exposed U2OS cells to compound 49 and evaluated the levels of p53 by Western blot. […] The exact mechanism by which the compounds elevate levels of p53 requires further investigation. However, it has previously been shown that the NuRD complex, of which RbAp48 is a core component, is able to deacetylate p53 and thereby modulate its stability. ^[26] The effect is mediated by the MTA family of proteins from which the compounds described here are derived. […]
The described assay follows closely the method described by Bray et al. Initially, 5 µl U2OS medium were added to each well of a 384 -well plate (PerkinElmer CellCarrier -384 Ultra). Subsequently, U2OS cell were seeded with a density of 1600 cells per well in 20 µl medium. The plate was incubated for 10 min at the ambient temperatu re, followed by an a dditional 4 h incubation (37 °C, 5 % CO2). Compound treatment was performed with the Echo 520 acoustic dispenser (Labcyte) at final concentrations of 10 µM, 3 µM or 1 µM. Incubation with compound was performed for 20 h (37 °C, 5 % CO2). Subsequently, mitoc hondria were stained with Mito Tracker Deep Red (Thermo Fisher Scientific, Cat. No. M22426). The Mito Tracker Deep Red stock solution (1 mM) was diluted to a final concentration of 100 nM in prewarmed medium. The medium was removed fr om the plate leaving 1 0 µl residual volume and 25 µl of the Mito Tracker solution were added to each well. 22 The plate was incubated for 30 min in darkness (37 °C, 5 % CO2). To fix the cells 7 µl of 18.5 % formaldehyde in PBS were added, resulting in a fi nal formaldehyde conce ntration of 3.7 %. Subsequently, the plate was incubated for another 20 min in darkness (RT) and washed three times with 70 µl of PBS. (Biotek Washer Elx405). Cells were permeabilized by addition of 25 µl 0.1 % Triton X -100 to each well, followed by 15 min incubation (RT) in darkness. The cells were washed three times with PBS leaving a final volume of 10 µl. To each well 25 µl of a staining solution were added, which contains 1 % BSA, 5 µl/mL Phalloidin (Thermo Fisher Scientific, A123 81), 25 µg/ml Concanav alin A (Thermo Fisher Scientific, Cat. […]
conjugate (Thermo Fisher Scientific, Cat. No. W11262) and […] SYTO 14 solution (Thermo Fisher Scientific, Cat. No. S7576). The plate is incubated for 30 min (RT) in darkness and washed three times with 70 µl PBS. After the final washing step the PBS was not aspirated. The plates were sealed and centrifuged for 1 min at 500 rpm.
The plates were prepare d in triplicates with shifted layouts to reduce plate effects and imaged using a Micro XL High-Content Screening System (Molecular Devices) in 5 channels (DAPI: Ex350 -400/ Em410- […]
The generated images were processed with the CellProfiler package (https://cellprofiler.org/, version 3.0.0) on a computing cluster of the Max Planck Society to extract 1716 cell features (parameters) per microscope site. The data was then further aggregated as medians per well (9 sites -> 1 well), then […]

[2] = target: T1, RbAp48 (Homo sapiens, UniProt Q09028); test: Competitive fluorescence polarization (FP) assay using complex of peptide 1 and RbAp48; format: binding; parameters: Full length RbAp48 was cloned; His tag followed by 3C cleavage site (N, cleaved yes); made in house; host or cells: Sf9 insect cells; settings: for IC50: Table 1, competitive FP, tracer peptide 1 1 nM, RbAp48 15 nM, 20 mM Tris-HCl, 150 mM NaCl, 0.01% Tween-20, pH 7.5, 30 min room temperature, lower limit set by 15 nM protein, read-out: IC50
T1 sequence (Q09028 whole entry): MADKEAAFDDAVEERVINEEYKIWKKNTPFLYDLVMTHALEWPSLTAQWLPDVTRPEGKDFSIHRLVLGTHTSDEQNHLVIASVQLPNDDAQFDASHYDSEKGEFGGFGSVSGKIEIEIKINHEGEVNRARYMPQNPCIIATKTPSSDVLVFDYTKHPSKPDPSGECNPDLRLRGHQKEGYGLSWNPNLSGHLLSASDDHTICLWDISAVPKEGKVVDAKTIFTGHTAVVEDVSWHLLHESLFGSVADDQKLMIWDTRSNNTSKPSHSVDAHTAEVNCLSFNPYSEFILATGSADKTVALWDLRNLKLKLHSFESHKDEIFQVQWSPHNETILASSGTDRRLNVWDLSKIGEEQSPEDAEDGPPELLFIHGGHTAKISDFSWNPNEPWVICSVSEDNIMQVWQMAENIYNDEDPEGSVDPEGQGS
Method in brief: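 Sf9-expressed full-length RbAp48 (tag cleaved), 15 nM, displaced from 1 nM fluorescent peptide tracer in 20 mM Tris-HCl pH 7.5, 150 mM NaCl, 0.01% Tween-20. Read by FP (ex 485/em 535 nm) after 30 min at room temperature.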

[3] = target: T1, RbAp48; test: Isothermal titration calorimetry (direct and competitive); format: binding; parameters: Full length RbAp48 was cloned; His tag followed by 3C cleavage site (N, cleaved yes); made in house; host or cells: Sf9 insect cells
Description: The weak ligand interferes with binding of the strong ligand allowing the use of higher concentrations and therefore stronger signal. The actual affinity and thermodynamic parameters can then be calculated from the measured values.[ ^20 , ^21 ] The long linear peptide 2, monocyclic peptide 8, and bicyclic peptide 33 were analysed using this method and the results are reported in Table 2 (See Figure 4 A and Supplemental Figure 13–16). […] An effect which could not clearly be observed by the FP assay as it's lower limits were reached.
Protein expression and purification
RbAp48 was expressed and purified by the Dortmund Protein Facility. Full length RbAp48 was cloned into a pOPIN vector ligating it to an N-terminal His tag followed by a 3C cleavage site. The protein was expressed from Sf9 cells for 48 h. Cells were harvested and lysed and the protein was purified by loading onto a HisTrap FF crude 5 ml column followed by on-column cleavage using Precission protease. The cleaved protein was then further purified using a HiLoad 26/60 Superdex 200 column.
(§1) Fluorescence polarization assay […]
Isothermal Titration Calorimetry
Isothermal titration calorimetry measurements w ere performed using a Microcal ITC-200 device. The buffer for all measurements consisted of 20 mM Tris, 150 mM NaCl, pH 7.5 and all measurements were performed at 25°C in duplicate except for 8. RbAp48 was dialyzed overnight using a 10 kDa MWCO Slide-A-lizer dialysis membrane and peptide samples were dissolved in the dialysis buffer. Direct measurements of 40 were perfomed by titrating the peptide ( 800 µM) into the cell containing RbAp48 (40 µM) using 2 µl injection after an initial injection of 0.5 µl. […]
by competitive ITC where the protein is premixed with a weak ligand ( 40).[1] Competitive measurements were performed by titrating 2, 8 or 33 (300 µM) into the cell containing RbAp48 (30 µM) and 40 (416 µM). Other conditions were the same as for the direct measurement described above.
Ki was calculated according using the following formula: […]

[4] = Peptide stability in MDA-MB-231 whole cell lysate; format: in vitro ADME; settings: human, 37°C, HPLC, duplicate; for half-life at 600 µM: MDA-MB-231 whole cell lysate (freeze-thaw), 5 mg/ml protein in PBS, peptide 600 µM, read-out: t 1/2 (half-life); for remaining at 5 min, 600 µM: T 5 min; for remaining at 5 min, 600 µM / remaining at 0.25 h, 600 µM / remaining at 1 h, 600 µM: MDA-MB-231 whole cell lysate 5 mg/ml protein, read-out: % left; for remaining at 0.25 h, 600 µM: T 15 min; for remaining at 1 h, 600 µM: T 60 min
Description: To investigate whether the cyclization strategy influences the stability of the peptides we incubated 3, 8 and 33 in MDA‐MB‐231 cell lysate. […]
as §1
Isothermal Titration Calorimetry […]
Peptide stability was tested in whole cell lysate prepared from MDA-MB-231 cells using the freeze-thaw method. Peptides were dissolved in lysate (normalized to 5mg/ml protein using PBS) at 600 µM and incubated at 37°C. Samples were taken at different time points and mixed with an equal amount of MeOH containing 0.05 mg/ml ethylparaben as an i nternal standard. The samples were mixed and kept on ice for 15 minutes before centrifugation at 14000 rpm at 4 °C for 10 min. The supernatant was carefully removed and analyzed by HPLC. Peptide peaks were integrated and surface areas compared […]
Measurements were performed in duplicate.

[5] = competitive ITC with weak ligand 40

Compound: COc1cc2nc(N3CCCN(C)CC3)nc(NC3CCN(Cc4ccccc4)CC3)c2cc1OC [BIX01294]
Biosimilarity (%) [1]: 64.9%

Compound: CC(=O)N1CCN(c2ccc(OCC3COC(Cn4ccnc4)(c4ccc(Cl)cc4Cl)O3)cc2)CC1 (centres unmarked) [Ketoconazole]
Biosimilarity (%) [1]: 61.9%

Compound: CC(C)(C)C[C@@H]1N[C@@H](C(=O)N[C@H]2CC[C@H](O)CC2)[C@H](c2cccc(Cl)c2F)[C@]12C(=O)Nc1cc(Cl)ccc12 [MI-773]
Biosimilarity (%) [1]: 73.0%

IC50 [2]: 13.4 ± 3 nM | Kd [3, 5]: 0.00518 µM
Compound: CC[C@H](C)[C@H](NC(=O)[C@@H]1CCCN1C(=O)[C@H](CCCCN)NC(=O)[C@H](Cc1ccc(O)cc1)NC(=O)[C@@H]1CCCN1C(=O)[C@H](CCCNC(=N)N)NC(=O)[C@H](CCCNC(=N)N)NC(=O)[C@H](C)NC(=O)[C@H](C)NC(=O)[C@H](CCCNC(=N)N)NC(=O)[C@H](CCCCN)NC(=O)[C@@H](NC(=O)[C@H](CCC(=O)O)NC(=O)[C@H](CO)NC(=O)[C@H](CO)NC(=O)[C@H](CO)NC(=O)[C@H](CC(C)C)NC(=O)[C@H](CC(C)C)NC(=O)[C@H](CCCCN)NC(C)=O)[C@@H](C)O)C(=O)N[C@@H](C)C(=O)N[C@@H](CC(C)C)C(=O)N[C@@H](CCCNC(=N)N)C(=O)N[C@@H](CCC(N)=O)C(=O)N[C@@H](CO)C(=O)N[C@@H](CCC(N)=O)C(=O)N[C@@H](C)C(N)=O [Peptide 2] (Ac-KLLSSSETKRAARRPYKPIALRQSQA-NH2)

IC50 [2]: 2620 ± 786 nM | half-life at 600 µM [4]: 16 min | remaining at 5 min, 600 µM [4]: 67.5% | remaining at 0.25 h, 600 µM [4]: 49.2% | remaining at 1 h, 600 µM [4]: 0%
Compound: CC[C@H](C)[C@H](NC(=O)[C@@H]1CCCN1C(=O)[C@H](CCCCN)NC(=O)[C@H](Cc1ccc(O)cc1)NC(=O)[C@@H]1CCCN1C(=O)[C@H](CCCNC(=N)N)NC(=O)[C@H](CCCNC(=N)N)NC(=O)[C@H](C)NC(=O)[C@H](C)NC(=O)[C@H](CCCNC(=N)N)NC(=O)[C@H](CCCCN)NC(=O)[C@@H](NC(=O)[C@H](CCC(=O)O)NC(C)=O)[C@@H](C)O)C(=O)N[C@@H](C)C(N)=O [Peptide 3] (Ac-ETKRAARRPYKPIA-NH2)

IC50 [2]: 15.1 ± 5.4 nM | half-life at 600 µM [4]: 11.9 min | remaining at 5 min, 600 µM [4]: 67.8% | remaining at 0.25 h, 600 µM [4]: 41% | remaining at 1 h, 600 µM [4]: 0% | K D [3, 5]: did not yield a binding curve | K D [nM] ([3]; competitive ITC: 300 μM peptide titrated into 30 μM RbAp48 and 416 μM peptide 40, 20 mM Tris, 150 mM NaCl, pH 7.5, 25°C, duplicate except 8): N.B.
Compound: CC(=O)N[C@H]1CSCc2ccc(cc2)CSC[C@@H](C(=O)N[C@@H](C)C(N)=O)NC(=O)[C@@H]2CCCN2C(=O)[C@H](CCCCN)NC(=O)[C@H](Cc2ccc(O)cc2)NC(=O)[C@@H]2CCCN2C(=O)[C@H](CCCNC(=N)N)NC(=O)[C@H](CCCNC(=N)N)NC(=O)[C@H](C)NC(=O)[C@H](C)NC(=O)[C@H](CCCNC(=N)N)NC(=O)[C@H](CCCCN)NC(=O)[C@H]([C@@H](C)O)NC1=O [Peptide 8] (Ac-CTKRAARRPYKPCA-NH2; linker 1-13 via pXylylene)

IC50 [2]: 4320 ± 974 nM | FP activity in words ([2]; competitive FP assay): decreased several orders of magnitude | Kd ([3]; weak binding ligand, direct ITC): 15.8 µM
Compound: CC(=O)N[C@H]1CSCc2cc3cc(c2)CSC[C@@H](C(=O)N[C@@H](C)C(N)=O)NC(=O)[C@@H]2CCCN2C(=O)[C@H](CCCCN)NC(=O)[C@H](Cc2ccc(O)cc2)NC(=O)[C@@H]2CCCN2C(=O)[C@H](CCCNC(=N)N)NC(=O)[C@H](C)NC(=O)[C@H](C)NC(=O)[C@H](CSC3)NC(=O)[C@H](CCCNC(=N)N)NC(=O)[C@H](CCCCN)NC(=O)[C@H]([C@@H](C)O)NC1=O [Peptide 40] (Ac-CTKRCAARPYKPCA-NH2; linker 1-5-13 via TBMB)

Compound: NS(=O)(=O)OC[C@@H]1C[C@@H](n2ccc3c(N[C@H]4CCc5ccccc54)ncnc32)C[C@@H]1O [Pevonedistat]
Biosimilarity (%) [1]: 63.6%

Compound: CCN(CC)CCNC(=O)c1c(C)[nH]c(/C=C2\C(=O)Nc3ccc(F)cc32)c1C [Sunitinib]
Biosimilarity (%) [1]: 63.5%

Compound: PFI-5
Biosimilarity (%) [1]: 65.1%
